Assay results as given in patent publication EP0925786A1, “REMEDIES FOR ISCHEMIC DISEASES” (MITSUBISHI CHEMICAL CORPORATION, priority 1996, dated 1998).

How the values were obtained:
m-Calpain = target: T1, m-Calpain (Rattus norvegicus, UniProt Q07009); assay: Measurement of inhibitory activity against calpain; assay type: biochemical; conditions: m-Calpain purified from rat brain
T1 construct: m-Calpain was purified from rat brain; from tissue; host or cells: rat brain
T1 sequence (Q07009 20-700 limits assumed): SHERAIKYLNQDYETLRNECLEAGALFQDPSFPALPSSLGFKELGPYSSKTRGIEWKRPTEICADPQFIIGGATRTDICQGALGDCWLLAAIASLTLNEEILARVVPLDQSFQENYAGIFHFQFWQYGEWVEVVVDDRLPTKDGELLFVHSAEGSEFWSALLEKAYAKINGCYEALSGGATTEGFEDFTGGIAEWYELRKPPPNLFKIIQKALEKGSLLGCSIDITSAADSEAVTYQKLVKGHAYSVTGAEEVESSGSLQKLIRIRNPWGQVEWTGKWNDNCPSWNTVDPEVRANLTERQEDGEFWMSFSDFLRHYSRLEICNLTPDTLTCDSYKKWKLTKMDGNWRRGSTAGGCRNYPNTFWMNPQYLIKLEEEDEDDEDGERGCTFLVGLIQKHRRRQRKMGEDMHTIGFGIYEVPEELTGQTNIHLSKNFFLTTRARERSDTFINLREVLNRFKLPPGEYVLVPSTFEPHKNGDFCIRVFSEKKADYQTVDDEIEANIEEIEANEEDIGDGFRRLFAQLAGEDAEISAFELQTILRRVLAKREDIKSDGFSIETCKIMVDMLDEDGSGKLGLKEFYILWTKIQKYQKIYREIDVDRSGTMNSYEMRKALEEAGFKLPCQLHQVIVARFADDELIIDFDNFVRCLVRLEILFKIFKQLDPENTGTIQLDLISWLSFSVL
T1 sequence (Q64537 1-270 partner): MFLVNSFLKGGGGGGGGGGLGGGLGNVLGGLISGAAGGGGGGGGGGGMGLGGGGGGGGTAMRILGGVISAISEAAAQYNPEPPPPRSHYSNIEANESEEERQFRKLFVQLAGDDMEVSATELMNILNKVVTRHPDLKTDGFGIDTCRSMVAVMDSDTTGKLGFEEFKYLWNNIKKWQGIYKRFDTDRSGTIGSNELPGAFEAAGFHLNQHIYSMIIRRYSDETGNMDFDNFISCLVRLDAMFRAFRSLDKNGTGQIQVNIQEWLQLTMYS
Protocol: m-Calpain was purified from rat brain in accordance with the method described in Journal of Biological Chemistry, vol. 259, p. 3210, 1984, and its inhibitory activity was measured in accordance with the method described in Journal of Biological Chemistry, vol. 259, p. 12489, 1984.

male Wistar rats = assay: Action to improve passive avoidance response after a short period of fore-brain ischemia; assay type: in vivo, rat; conditions: dose of 1 mg/kg, po, 30 minutes before 5 minutes of ischemia loading; retrieval test 48 hours after reperfusion
From the text: Also, animals treated only with cauterization of vertebral arteries were used as a pseudo-operation group. During ischemia and after reperfusion, body temperature of the animals was maintained by putting them on a heat insulating mat until righting reflex was recovered.
An apparatus composed of a light room (50 x 50 x 50 cm) equipped with a 100 W bulb and a dark room (20 x 14 x 20 cm) was used in the passive avoidance response test. Each of the rats which have been subjected to cauterization of both vertebral arteries 48 hours prior to the test was put into the light room and its latency to enter the dark room was measured to be used as the response latency at the time of acquisition trial. […] When each rat entered the dark room, the guillotine door was closed and the rat was immediately exposed to an electric shock (2.9 mA, 5 seconds) from the floor grid, thus completing the acquisition trial. Subsequently, 5 minutes of ischemia loading (occlusion of both common carotid arteries) was carried out under ether anesthesia, and retrieval test was carried out 48 hours after reperfusion. […] Presence or absence of the action to improve passive avoidance response was judged by comparing response latencies of the acquisition trial and retrieval test. Each drug to be tested was orally administered 30 minutes before the ischemia loading.

in vivo = conditions: both sexes, SD, rat, po
[1] = Formation of active metabolite in blood (dog sera, HPLC); assay type: in vitro ADME; conditions: same procedure
[2] = Formation of active metabolite in blood (human sera, HPLC); assay type: in vitro ADME; conditions: same procedure
[3] = Formation of active metabolite in blood (rat serum incubation, HPLC); assay type: in vitro ADME; conditions: final concentration 100 µM, 5 minutes of incubation at 37°C
Protocol: (2S,3S)-2-Acetoxy-3-((S)-4-methyl-2-phenylsulfonylaminovalerylamino)tetrahydrofuran obtained in Inventive Example 2 was dissolved in acetonitrile and added to rat serum to a final concentration of 100 µM. After 5 minutes of incubation at 37°C, this was mixed with acetonitrile and centrifuged and then the thus obtained supernatant fluid was checked by HPLC. It was found as the result that a 97% portion of the thus added (2S,3S)-2-acetoxy-3-((S)-4-methyl-2-phenylsulfonylaminovalerylamino)-tetrahydrofuran was hydrolyzed and converted into its active metabolite (3S)-3-((S)-4-methyl-2-phenylsulfonylaminovalerylamino)-2-tetrahydrofuranol (compound of Inventive Example 1).
HPLC was carried out under the following conditions. • Column: Nucleosil 100 5C18 4.6 x 250 mm (manufactured by Nargel) • Column temperature: 50°C • Mobile phase: CH3CN:H2O:PIC A Low UV (manufactured by Waters) 22:78:1 • Flow rate: 1 ml/min • Detection wave length: UV 222 nm

female SD rats = assay: Myocardial infarct size-limiting effect in acute myocardial infarction model of rat; assay type: in vivo
Protocol: An experiment was performed on female SD rats (14 weeks of age). The rats were lightly anesthetized with ether and a left thoracotomy wag performed. A permanent occlusion was placed around the proximal left coronary artery to produce acute myocardial infarction. Infarct size evaluated in each excised heart at 24 hours after the ligation.
The animals were divided into 2 groups at random, and 10 mg/kg of the compound of Inventive Example 29 (Compound No.. 426 in Table 2) suspended in water with Tween 80 was orally administered in a volume of 1 ml/kg to each animal of one of these groups (drug group) 1 hour before the coronary artery ligation, while the same volume of tap water was administered to the other group (control group). A rat with successful thoracotomy and which survived until 24 hours after the coronary ligation was used as the final evaluation subject. This study was continued until the final number of animals in each group reached 8.
Evaluation of the myocardial infarct size was carried out in the following manner. Each of the excised heart was cut into the slices at 2 mm thick from apex to base, and the sections were stained by incubating them in TTC solution (1%) at 37°C for 20 minutes to confirm necrotic region and non-necrotic region. Thereafter, sectional images of the sections were photographed to carry out image analysis on a computer. The infarction size was expressed as a % value obtained by dividing total area of necrotic area of all sliced sections by total left ventricle area (including septum part and excluding left ventricle cavity).

## Cc1ccc(C(=O)N[C@@H](CC(C)C)C(=O)N[C@H]2CCOC2O)cc1 (stereo partly drawn) [Inventive Example 12, (3S)-3-{(S)-4-methyl-2-(4-methylbenzoylamino)valerylamino}-2-tetrahydrofuranol]
m-Calpain
  IC50: 0.33 µM

## CC(C)C[C@H](NC(=O)c1ccccc1F)C(=O)N[C@H]1CCOC1O (stereo partly drawn) [Inventive Example 10, (3S)-3-{(S)-2-(2-fluorobenzoylamino)-4-methylvalerylamino}-2-tetrahydrofuranol]
m-Calpain
  IC50: 0.17 µM

## CC(C)C[C@H](NS(=O)(=O)c1ccc2ccccc2c1)C(=O)N[C@H]1CCOC1O (stereo partly drawn) [Inventive Example 18, (3S)-3-{(S)-4-methyl-2-(2-naphthylsulfonylamino)valerylamino}-2-tetrahydrofuranol]
m-Calpain
  IC50: 0.36 µM

## CCCCCCCCCCCCCCC(=O)N[C@@H](CC(C)C)C(=O)N[C@H]1CCOC1O (stereo partly drawn) [Inventive Example 8, (3S)-3-((S)-4-methyl-2-pentadecanoylaminovalerylamino)-2-tetrahydrofuranol]
m-Calpain
  IC50: 0.11 µM

## CC(=O)O[C@@H]1OCC[C@@H]1NC(=O)[C@H](CC(C)C)NS(=O)(=O)c1ccccc1 [Inventive Example 2, (2S,3S)-2-acetoxy-3-((S)-4-methyl-2-phenylsulfonylaminovalerylamino)tetrahydrofuran]
Male Wistar rats
  action to improve passive avoidance response: showed the improving action
In vivo
  LD50 at 7 days: > 2000 mg/kg
[1]
  formation of active metabolite: the same active metabolite is formed
[2]
  formation of active metabolite: the same active metabolite is formed
[3]
  portion hydrolyzed and converted into its active metabolite: 97%

## CCCCCCCCCCCCCCCC(=O)N[C@@H](CC(C)C)C(=O)N[C@H]1CCOC1O (stereo partly drawn) [Inventive Example 9, (3S)-3-((S)-2-hexadecanoylamino-4-methylvalerylamino)-2-tetrahydrofuranol]
m-Calpain
  IC50: 0.16 µM

## CCCCCCCCCCCCCCOC(=O)N[C@@H](CC(C)C)C(=O)N[C@H]1CCOC1O (stereo partly drawn) [Inventive Example 3, (3S)-3-((S)-4-methyl-2-tetradecyloxycarbonylaminovalerylamino)-2-tetrahydrofuranol]
m-Calpain
  IC50: 0.11 µM

## CC(=O)O[C@@H]1OCC[C@@H]1NC(=O)[C@H](CC(C)C)NS(=O)(=O)c1c(C)cc(C)cc1C [Inventive Example 29, (2S,3S)-2-acetoxy-3-{(S)-4-methyl-2-(2,4,6-trimethylphenylsulfonylamino)valerylamino}tetrahydrofuran]
Female SD rats; 10 mg/kg orally 1 hour before coronary artery ligation, 24 hours after ligation, necrotic area / total left ventricle area, control 37.3 ± 3.5%
  infarct size: 25.0 ± 1.7%
Female SD rats; 10 mg/kg orally, based on the control group
  infarct size reducing ratio: 33.0%
Female SD rats; drug group 10 mg/kg orally, control group 2
  animals died during the thoracotomy: 3
Female SD rats; drug group 10 mg/kg orally, control group 9
  animals died within 24 hours after the operation: 10
In vivo
  LD50 at 7 days: > 2000 mg/kg

## CC(=O)O[C@@H]1OCC[C@@H]1NC(=O)[C@H](CC(C)C)NC(=O)c1ccccc1F [Inventive Example 24, (2S,3S)-2-acetoxy-3-{(S)-2-(2-fluorobenzoylamino)-4-methylvalerylamino}tetrahydrofuran]
Male Wistar rats
  action to improve passive avoidance response: showed the improving action

## COc1ccc(S(=O)(=O)N[C@@H](CC(C)C)C(=O)N[C@H]2CCOC2O)cc1 (stereo partly drawn) [Inventive Example 17, (3S)-3-{(S)-2-(4-methoxyphenylsulfonylamino)-4-methylvalerylamino}-2-tetrahydrofuranol]
m-Calpain
  IC50: 0.67 µM

## CC(C)C[C@H](NS(=O)(=O)c1ccccc1)C(=O)N[C@H]1C(C)COC1O (stereo partly drawn) [Inventive Example 19, (3S)-4-methyl-3-((S)-4-methyl-2-phenylsulfonylaminovalerylamino)-2-tetrahydrofuranol]
m-Calpain
  IC50: 2.5 µM

## CCCCCCCCCCCCCCCCS(=O)(=O)N[C@@H](CC(C)C)C(=O)N[C@H]1CCOC1O (stereo partly drawn) [Inventive Example 13, (3S)-3-((S)-2-hexadecylsufonylamino-4-methylvalerylamino)-2-tetrahydrofuranol]
m-Calpain
  IC50: 0.42 µM
